Reference: publication PMC12775434, “Ultra-large virtual screening unveils potent agonists of the neuromodulatory orphan receptor GPR139” (Nature Communications, 2025)
Several values for one entry are separate records, joined by “and”; a condition that tells them apart may be missing. Equal entries are not always repeated.

What was measured:
Type in all cases: cell-based
GPR139 (GoA activation) = molecular target: T1, GPR139 (GoA activation) (Homo sapiens, UniProt Q6DWJ6); assay: BRET G protein activation (dissociation) assay, GoA, HEK293A; details: for G protein activation, GoA: individual replicates
T1 construct: expressed in transfected cells; host or cells: HEK293A (transient, Lipofectamine 2000)
T1 sequence (Q6DWJ6 1-353): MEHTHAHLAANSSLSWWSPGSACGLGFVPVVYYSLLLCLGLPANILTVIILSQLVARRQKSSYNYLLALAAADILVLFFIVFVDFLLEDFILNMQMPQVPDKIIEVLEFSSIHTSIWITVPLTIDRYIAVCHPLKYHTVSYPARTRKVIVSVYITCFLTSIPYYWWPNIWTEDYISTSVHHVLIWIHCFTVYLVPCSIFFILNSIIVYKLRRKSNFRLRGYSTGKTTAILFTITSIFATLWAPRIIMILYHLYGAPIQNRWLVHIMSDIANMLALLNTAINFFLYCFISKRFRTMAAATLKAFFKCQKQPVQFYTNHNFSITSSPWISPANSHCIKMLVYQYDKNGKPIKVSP
Procedure: (§1) Primary screening and pharmacological characterization of compounds were performed using a CHO-K1 cell line that stably expresses human GPR139 (GPR139-CHOk1). The GPR139-CHOk1 cell line was kindly provided by H. Lundbeck A/S, Denmark[24]. GPR139-CHOk1 cells were grown in Ham’s F-12 Kaighn’s Modification Medium (ThermoFisher #21127030) supplemented with 10% dialyzed fetal bovine serum (US origin, ThermoFisher #26400044), 100 units/mL Penicillin-Streptomycin (ThermoFisher #15140122), and 1 mg/mL Geneticin (ThermoFisher #11811031). […] M1R-CHOk1 cells were purchased from The Missouri S&T cDNA Resource Center (#CEM100TN00). M1R-CHOk1 cells were grown in Ham’s F12 Medium (ThermoFisher #21765029) supplemented with 10% fetal bovine serum (Brazilian origin, ThermoFisher #10270106), 100 units/mL Penicillin-Streptomycin, and 0.25 mg/mL Geneticin. HEK293A cells transiently transfected with GPR139 were used for additional pharmacological assessment of signaling pathways activated by GPR139. HEK239A cells were generously provided by Dr. Asuka Inoue, Tohoku University, Japan. HEK293A cells were grown in Dulbecco’s Modified Eagle Medium (ThermoFisher #31966047) supplemented with 10% dialyzed fetal bovine serum and 100 units/mL Penicillin-Streptomycin. Cell lines were maintained at 37 °C in humidified incubator equilibrated with 5% CO2.
(§2) The G protein dissociation assay developed by the lab of Kirill A. Martemyanov was used to measure the coupling of multiple G proteins by GPR139[57]. The assay was performed as described previously with minor modifications. HEK293A cells were reverse transfected 20–24 h prior to assay. 50,000 cells were plated in each well of white opaque tissue culture treated 96-well plates (PerkinElmer #6005680) previously coated with poly-D-lysine. Transfection solutions were prepared as described, and 10 µL transfection solution was mixed with 100 µL cells in each well. The cells in each well were transfected with 18.9 ng GPR139, 6.3 ng Venus 1-155 Gγ2, 6.3 ng Venus 159-239 Gβ1, 6.3 ng masGRK3ct-NanoLuc and 12.6 ng Gαi2, 12.6 ng Gαi3, 12.6 ng GαoA, 12.6 ng Gαq or 25.2 ng Gα12 using 375 nL Lipofectamine 2000 Transfection Reagent. Transfections with Gαq and Gα12 contained 6.3 ng DNA of the active subunit S1 of pertussis toxin (PTX-S1). Each transfection was normalized to 150 ng total DNA with pcDNA3.1. The BRET biosensors were a kind gift from the Martemyanov lab. On the day of the experiment the cells were washed with HEPES buffer. Test compounds were diluted in HEPES buffer from DMSO stocks (final DMSO concentration of maximally 0.3%). NanoLuc Luciferase substrate NanoGlo—furimazine (Promega #N1120) was diluted 1000-fold (final) in HEPES buffer. NanoGlo and test compounds were added, and measurements were performed after 10 s for Gi3, 15 s for Gi2 and GoA, 20 s for Gq, and 90 s for G12—the timepoint where maximal signal occurred with each G protein, ensuring proper determination of the potency for the G protein coupling. Simultaneous dual emission was measured at 535 nm and 475 nm on LUMIstar Omega Microplate Reader (BMG Labtech) at room temperature. The BRET ratio of 535 nm/475 nm (Venus/NanoLuc), reflecting the dissociation of the G protein heterotrimer, was used to determine the G protein activation. The basal BRET ratio obtained with buffer condition was subtracted from the absolute BRET ratio at a given test compound concentration, and the responses were normalized to the one obtained with 10 µM JNJ-63533054 for the activation of Gi2.
(§3) Pharmacological data and statistical analyses were performed in GraphPad Prism v9–10 (Graphpad Software Inc., San Diego, CA), which are also specifically described in the figure and table legends. […]

GPR139 (Gq activation) = molecular target: T2, GPR139 (Gq activation) (Homo sapiens, UniProt Q6DWJ6); assay: BRET G protein activation (dissociation) assay, Gq, HEK293A; details: for G protein activation, Gq: individual replicates
T2 construct: expressed in transfected cells; host or cells: HEK293A (transient, Lipofectamine 2000)
T2 sequence (Q6DWJ6 1-353): T1 sequence (Q6DWJ6 1-353)
Procedure: as §1, §2, §3

GPR139 (G12 activation) = molecular target: T3, GPR139 (G12 activation) (Homo sapiens, UniProt Q6DWJ6); assay: BRET G protein activation (dissociation) assay, G12, HEK293A; details: for G protein activation, G12: individual replicates
T3 construct: expressed in transfected cells; host or cells: HEK293A (transient, Lipofectamine 2000)
T3 sequence (Q6DWJ6 1-353): T1 sequence (Q6DWJ6 1-353)
Procedure: as §1, §2, §3

[1] = HEK293-A, normalized to JNJ-63533054 (JNJ(S))

Emax (GPR139 (GoA activation); [1]): 96 ± 3%
EC50 (GPR139 (GoA activation); Supplementary Table 6): 63.1 nM
Emax (GPR139 (Gq activation); [1]): 35 ± 3%
EC50 (GPR139 (Gq activation); Supplementary Table 6): 200 nM
Emax (GPR139 (G12 activation); [1]): 54 ± 3%
EC50 (GPR139 (G12 activation); Supplementary Table 6, read-out: pEC50 G12 (converted)): 12.6 nM
Structure (SMILES): Cc1cscc1-c1nc(CC(=O)N[C@@H](C)c2ccccc2)no1 [1.1(S)]
G protein activation, GoA (GPR139 (GoA activation); log [compound] M -4.5): 105 % of JNJ-63533054 at Gi2 and 96 % of JNJ-63533054 at Gi2 and 101 % of JNJ-63533054 at Gi2
G protein activation, GoA (GPR139 (GoA activation); log [compound] M -5.0): 96 % of JNJ-63533054 at Gi2 and 86 % of JNJ-63533054 at Gi2 and 97 % of JNJ-63533054 at Gi2
G protein activation, GoA (GPR139 (GoA activation); log [compound] M -5.5): 94 % of JNJ-63533054 at Gi2 and 83 % of JNJ-63533054 at Gi2 and 96 % of JNJ-63533054 at Gi2
G protein activation, GoA (GPR139 (GoA activation); log [compound] M -6.0): 93 % of JNJ-63533054 at Gi2 and 78 % of JNJ-63533054 at Gi2 and 92 % of JNJ-63533054 at Gi2
G protein activation, GoA (GPR139 (GoA activation); log [compound] M -6.5): 83 % of JNJ-63533054 at Gi2 and 70 % of JNJ-63533054 at Gi2 and 76 % of JNJ-63533054 at Gi2
G protein activation, GoA (GPR139 (GoA activation); log [compound] M -7.0): 62 % of JNJ-63533054 at Gi2 and 52 % of JNJ-63533054 at Gi2 and 61 % of JNJ-63533054 at Gi2
G protein activation, GoA (GPR139 (GoA activation); log [compound] M -7.5): 34 % of JNJ-63533054 at Gi2 and 29 % of JNJ-63533054 at Gi2 and 31 % of JNJ-63533054 at Gi2
G protein activation, GoA (GPR139 (GoA activation); log [compound] M -8.0): 11 % of JNJ-63533054 at Gi2 and 8 % of JNJ-63533054 at Gi2 and 13 % of JNJ-63533054 at Gi2
G protein activation, Gq (GPR139 (Gq activation); log [compound] M -4.5): 35 % of JNJ-63533054 at Gi2 and 45 % of JNJ-63533054 at Gi2 and 30 % of JNJ-63533054 at Gi2
G protein activation, Gq (GPR139 (Gq activation); log [compound] M -5.0): 36 % of JNJ-63533054 at Gi2 and 38 % of JNJ-63533054 at Gi2 and 28 % of JNJ-63533054 at Gi2
G protein activation, Gq (GPR139 (Gq activation); log [compound] M -5.5): 32 % of JNJ-63533054 at Gi2 and 38 % of JNJ-63533054 at Gi2 and 27 % of JNJ-63533054 at Gi2
G protein activation, Gq (GPR139 (Gq activation); log [compound] M -6.0): 30 % of JNJ-63533054 at Gi2 and 34 % of JNJ-63533054 at Gi2 and 26 % of JNJ-63533054 at Gi2
G protein activation, Gq (GPR139 (Gq activation); log [compound] M -6.5): 21 % of JNJ-63533054 at Gi2 and 30 % of JNJ-63533054 at Gi2 and 16 % of JNJ-63533054 at Gi2
G protein activation, Gq (GPR139 (Gq activation); log [compound] M -7.0): 11 % of JNJ-63533054 at Gi2 and 15 % of JNJ-63533054 at Gi2 and 8 % of JNJ-63533054 at Gi2
G protein activation, Gq (GPR139 (Gq activation); log [compound] M -7.5): 2.21 % of JNJ-63533054 at Gi2 and 3.62 % of JNJ-63533054 at Gi2 and 4 % of JNJ-63533054 at Gi2
G protein activation, Gq (GPR139 (Gq activation); log [compound] M -8.0): -2.13 % of JNJ-63533054 at Gi2 and -0.806 % of JNJ-63533054 at Gi2 and 3.47 % of JNJ-63533054 at Gi2
G protein activation, G12 (GPR139 (G12 activation); log [compound] M -4.5): 60 % of JNJ-63533054 at Gi2 (2×) and 52 % of JNJ-63533054 at Gi2
G protein activation, G12 (GPR139 (G12 activation); log [compound] M -5.0): 54 % of JNJ-63533054 at Gi2 and 46 % of JNJ-63533054 at Gi2 and 58 % of JNJ-63533054 at Gi2
G protein activation, G12 (GPR139 (G12 activation); log [compound] M -5.5): 51 % of JNJ-63533054 at Gi2 and 44 % of JNJ-63533054 at Gi2 and 56 % of JNJ-63533054 at Gi2
G protein activation, G12 (GPR139 (G12 activation); log [compound] M -6.0): 52 % of JNJ-63533054 at Gi2 and 45 % of JNJ-63533054 at Gi2 and 55 % of JNJ-63533054 at Gi2
G protein activation, G12 (GPR139 (G12 activation); log [compound] M -6.5): 47 % of JNJ-63533054 at Gi2 and 43 % of JNJ-63533054 at Gi2 and 53 % of JNJ-63533054 at Gi2
G protein activation, G12 (GPR139 (G12 activation); log [compound] M -7.0): 46 % of JNJ-63533054 at Gi2 and 39 % of JNJ-63533054 at Gi2 and 52 % of JNJ-63533054 at Gi2
G protein activation, G12 (GPR139 (G12 activation); log [compound] M -7.5): 36 % of JNJ-63533054 at Gi2 and 32 % of JNJ-63533054 at Gi2 and 42 % of JNJ-63533054 at Gi2
G protein activation, G12 (GPR139 (G12 activation); log [compound] M -8.0): 22 % of JNJ-63533054 at Gi2 and 19 % of JNJ-63533054 at Gi2 and 27 % of JNJ-63533054 at Gi2
